20 compounds from patent publication US11160794B2, “Methods for treating congenital disorders of glycosylation” (Maggie's Pearl, LLC, priority 2018, dated 2021) can be followed below.

SMILES strings stand for the structures. Structures can show the parent of a compound that is named as a salt.

For this experiment, the system named is pmm-2 F125L/F125L worms. The experiment is described as follows: Bortezomib-induced growth suppression rescue screen in pmm-2 F125L worms. Format: in vivo, nematode (worms). Conditions: 25 μM drug, 11 μM Bzb, 5 days; one row per replicate. The source says:
A F119L point mutation strain, orthologous F125L in worms was created.
Because an underlying defect in glycosylation may be manifested when subjected to external chemical stressors, Pmm-2 F119L homozygous animals were subjected to Tunicamycin and Bortezomib drug exposures. Tunicamycin is an inhibitor of N-linked glycosylation and Bortezomib (Bzb) is an irreversible inhibitor of the proteasome. It was contemplated that either or both drugs would affect the Pmm-2 mutants differently compared to wild type (“WT”).
Thus, Bzb-induced growth suppression was used as a means to identify compounds that might rescue the global effects of exacerbated glycosylation deficiency. Using this approach, animals were age-synchronized to obtain L1 larvae. Fifteen L1 larvae were dispensed into wells of a 384-well plate containing 25 μM of drugs (obtained from the MicroSource Spectrum library purchased from MicroSource Discovery Systems) and 11 μM Bzb. Bacterial media at fixed optical density was added to wells to enable worms to grow for a 5 day period. Animals were dispensed using Biosorter, a large particle flow cytometer by Union Biometrica, Mass. At the end of the 5 day period, animals were treated with 15 μls of 8 mM sodium azide (for 55 μls of total assay volume). After 20 minutes, immobilized animals were imaged using a plate imager under transmitted light. A custom image processing script was used to extract the areas occupied by worms/well over a 5 day period. Each plate has positive controls (no Bzb) and negative controls (11 μM Bzb) that was used to determine the z score of test wells per plate. After outlier correction for each plate in each replicate, data from all three replicates was compared. Wells per plate with positive z scores greater than 2 were identified as “hits.” If hits reproduced across all three replicates were then compared. […] At least 13 of the 20 compounds belong to the category of antioxidants; still others fall in the category of catecholamines
Regarding `O=c1c(O)cccc2ccc(O)c(O)c12`, the Status result is “HIT (Wells per plate with positive z scores greater than 2 were identified as “hits.”)”. With `COc1ccc(C(=O)c2ccc(O)cc2)c(O)c1O` [2,3,4′-TRIHYDROXY-4-METHOXYBENZOPHENONE, 2,3,4′-trihydroxy-4-methoxybenzophenone], the Status result was “HIT (Wells per plate with positive z scores greater than 2 were identified as “hits.”)”. As for `CCOc1cccc(C(=O)c2ccc(O)c(O)c2O)c1` [3,4-didesmethyl-5-deshydroxy-3′-ethoxyscleroin], the entry is “HIT (Wells per plate with positive z scores greater than 2 were identified as “hits.”)”; as for `COc1cccc(O)c1O` [3-METHOXYCATECHOL, 3-methoxycatechol], “HIT (Wells per plate with positive z scores greater than 2 were identified as “hits.”)”.

As to `Nc1ccc(O)c(N)c1` [AMIDOL DIHYDROCHLORIDE, amidol dihydrochloride], the Status entry was “HIT (Wells per plate with positive z scores greater than 2 were identified as “hits.”)”. For `O=c1cc(-c2ccccc2)oc2cc(O)c(O)c(O)c12` [BAICALEIN, baicalein] the value was “HIT (Wells per plate with positive z scores greater than 2 were identified as “hits.”)”. For the compound `CC(CCc1ccc(O)cc1)NCCc1ccc(O)c(O)c1` (centres unmarked) [DOBUTAMINE HYDROCHLORIDE, dobutamine hydrochloride, reference compound], the Status entry is reported as “HIT (Wells per plate with positive z scores greater than 2 were identified as “hits.”)”. Regarding `CC1=NN(c2ccccc2)C(=O)C1` [EDARAVONE, edaravone, reference compound], the Status result was “HIT (Wells per plate with positive z scores greater than 2 were identified as “hits.”)”.

Turning to `O=c1oc2c(O)c(O)cc3c(=O)oc4c(O)c(O)cc1c4c23` [ELLAGIC ACID, ellagic acid], the Status result is given as “HIT (Wells per plate with positive z scores greater than 2 were identified as “hits.”)”. Take `O=C(O[C@@H]1Cc2c(O)cc(O)cc2O[C@@H]1c1ccc(O)c(O)c1)c1cc(O)c(O)c(O)c1` [EPICATECHIN MONOGALLATE, epicatechin monogallate]: the Status result is reported as “HIT (Wells per plate with positive z scores greater than 2 were identified as “hits.”)”. As for `CCC(N)C(O)c1ccc(O)c(O)c1` (centres unmarked) [ETHYLNOREPINEPHRINE HYDROCHLORIDE, ethylnorepinephrine hydrochoride, reference compound], the entry is “HIT (Wells per plate with positive z scores greater than 2 were identified as “hits.”)”. As for `O=c1c(O)c(-c2ccc(O)c(O)c2)oc2cc(O)ccc12` [FISETIN, fisetin], the entry is “HIT (Wells per plate with positive z scores greater than 2 were identified as “hits.”)”. For `O=c1c(O)c(-c2ccc(O)c(O)c2)oc2c(O)c(O)cc(O)c12` [GOSSYPETIN, gossypetin], the Status entry was “HIT (Wells per plate with positive z scores greater than 2 were identified as “hits.”)”. On to `O=c1cc(-c2cc(O)c(O)c(O)c2)oc2cc(O)cc(O)c12` [HIERACIN, hieracin], for which the Status entry is reported as “HIT (Wells per plate with positive z scores greater than 2 were identified as “hits.”)”. `COc1ccc(-c2coc3cc(O)ccc3c2=O)c(O)c1O` [KOPARIN, koparin]: the Status result is given as “HIT (Wells per plate with positive z scores greater than 2 were identified as “hits.”)”. Consider `N[C@@H](Cc1ccc(O)c(O)c1)C(=O)O` [LEVODOPA, levodopa, reference compound], for which the Status result is recorded as “HIT (Wells per plate with positive z scores greater than 2 were identified as “hits.”)”. `O=C(O)c1cc(O)c(=O)c2c(O)c(O)c(O)cc2c1` [PURPUROGALLIN-4-CARBOXYLIC ACID, purpurogallin-4-carboxylic acid]: the Status result was “HIT (Wells per plate with positive z scores greater than 2 were identified as “hits.”)”. Take `COc1cc(OC)c2c(=O)c(O)c(-c3ccc(OC)c(OC)c3)oc2c1` [QUERCETIN 5,7,3,4′-TETRAMETHYL ETHER, quercetin 5,7,3′,4′-tetramethyl ether]: the Status result is on record as “HIT (Wells per plate with positive z scores greater than 2 were identified as “hits.”)”. Take `COc1cc(O)c2c(=O)c(O)c(-c3ccc(O)c(O)c3)oc2c1` [RHAMNETIN, rhamnetin]: the Status result was “HIT (Wells per plate with positive z scores greater than 2 were identified as “hits.”)”.

`O=C(O[C@@H]1Cc2c(O)cc(O)cc2O[C@@H]1c1cc(O)c(=O)c2c(O)c(O)cc([C@H]3Oc4cc(O)cc(O)c4C[C@H]3O)c2c1)c1cc(O)c(O)c(O)c1` [THEAFLAVIN MONOGALLATES, theaflavin monogallate]: the Status entry is recorded as “HIT (Wells per plate with positive z scores greater than 2 were identified as “hits.”)”.
